Reference: the kinase profiling compilation of Christmann-Franck et al. (2016)
pKd: −log10 of the molar value.

Columns and labels:
Test in all cases: KINOMEscan competition binding
ACVR2A (human) = ACVR2A (human) (UniProt P27037); conditions: compound 1.0 µM
ADCK4 (human) = ADCK4 (human) (UniProt Q96D53); conditions: compound 1.0 µM
BMX (human) = BMX (human) (UniProt P51813); conditions: compound 1.0 µM
CDK2 (human) = CDK2 (human) (UniProt P24941); conditions: compound 1.0 µM
CDK4 CCND1 (human) = CDK4 CCND1 (human) (UniProt P11802+P24385); conditions: compound 1.0 µM
CDK4 CCND3 (human) = CDK4 CCND3 (human) (UniProt P11802+P30281); conditions: compound 1.0 µM
CDKL1 (human) = CDKL1 (human) (UniProt Q00532); conditions: compound 1.0 µM
CDKL5 (human) = CDKL5 (human) (UniProt O76039); conditions: for kinase still bound, per cent of control: compound 1.0 µM
CPK1 (P.falciparum) = conditions: compound 1.0 µM
CaMK1 (human) = CaMK1 (human) (UniProt Q14012); conditions: compound 1.0 µM
DDR1 (human) = DDR1 (human) (UniProt Q08345); conditions: compound 1.0 µM
[1] = tested on: EGFR (human), P00533 [G719S]; conditions: compound 1.0 µM
EPHA1 (human) = EPHA1 (human) (UniProt P21709); conditions: compound 1.0 µM
EPHA3 (human) = EPHA3 (human) (UniProt P29320); conditions: compound 1.0 µM
EPHA4 (human) = EPHA4 (human) (UniProt P54764); conditions: compound 1.0 µM
EPHB3 (human) = EPHB3 (human) (UniProt P54753); conditions: compound 1.0 µM
EPHB4 (human) = EPHB4 (human) (UniProt P54760); conditions: compound 1.0 µM
[2] = tested on: FLT3 (human), P36888 [D835Y]; conditions: compound 1.0 µM
FLT4 (human) = FLT4 (human) (UniProt P35916); conditions: compound 1.0 µM
IRAK3 (human) = IRAK3 (human) (UniProt Q9Y616); conditions: compound 1.0 µM
LATS2 (human) = LATS2 (human) (UniProt Q9NRM7); conditions: compound 1.0 µM
LTK (human) = LTK (human) (UniProt P29376); conditions: compound 1.0 µM
MAP2K3 (human) = MAP2K3 (human) (UniProt P46734); conditions: compound 1.0 µM
MAP3K1 (human) = MAP3K1 (human) (UniProt Q13233); conditions: compound 1.0 µM
MAP3K4 (human) = MAP3K4 (human) (UniProt Q9Y6R4); conditions: compound 1.0 µM
MAPK15 (human) = MAPK15 (human) (UniProt Q8TD08); conditions: compound 1.0 µM
MKNK2 (human) = MKNK2 (human) (UniProt Q9HBH9); conditions: compound 1.0 µM
OXSR1 (human) = OXSR1 (human) (UniProt O95747); conditions: compound 1.0 µM
PIK3C2B (human) = PIK3C2B (human) (UniProt O00750); conditions: compound 1.0 µM
[3] = tested on: PIK3CA (human), P42336 [E545K]; conditions: compound 1.0 µM
PIK3CG (human) = PIK3CG (human) (UniProt P48736); conditions: compound 1.0 µM
PRKAA1 (human) = PRKAA1 (human) (UniProt Q13131); conditions: compound 1.0 µM
PRKACB (human) = PRKACB (human) (UniProt P22694); conditions: compound 1.0 µM
PTK6 (human) = PTK6 (human) (UniProt Q13882); conditions: compound 1.0 µM
RPS6KA4 KD2 (human) = RPS6KA4 KD2 (human) (UniProt O75676); conditions: compound 1.0 µM
RPS6KA5 KD1 (human) = RPS6KA5 KD1 (human) (UniProt O75582); conditions: compound 1.0 µM
RPS6KA5 KD2 (human) = RPS6KA5 KD2 (human) (UniProt O75582); conditions: compound 1.0 µM
RPS6KA6 KD2 (human) = RPS6KA6 KD2 (human) (UniProt Q9UK32); conditions: compound 1.0 µM
SGK110 (human) = SGK110 (human) (UniProt P0C264); conditions: compound 1.0 µM
TNK1 (human) = TNK1 (human) (UniProt Q13470); conditions: compound 1.0 µM
YSK4 (human) = YSK4 (human) (UniProt Q56UN5); conditions: for kinase still bound, per cent of control: compound 1.0 µM
ZAP70 (human) = ZAP70 (human) (UniProt P43403); conditions: compound 1.0 µM

Sequence of RPS6KA6 KD2 (human) (Q9UK32 whole entry, looked up): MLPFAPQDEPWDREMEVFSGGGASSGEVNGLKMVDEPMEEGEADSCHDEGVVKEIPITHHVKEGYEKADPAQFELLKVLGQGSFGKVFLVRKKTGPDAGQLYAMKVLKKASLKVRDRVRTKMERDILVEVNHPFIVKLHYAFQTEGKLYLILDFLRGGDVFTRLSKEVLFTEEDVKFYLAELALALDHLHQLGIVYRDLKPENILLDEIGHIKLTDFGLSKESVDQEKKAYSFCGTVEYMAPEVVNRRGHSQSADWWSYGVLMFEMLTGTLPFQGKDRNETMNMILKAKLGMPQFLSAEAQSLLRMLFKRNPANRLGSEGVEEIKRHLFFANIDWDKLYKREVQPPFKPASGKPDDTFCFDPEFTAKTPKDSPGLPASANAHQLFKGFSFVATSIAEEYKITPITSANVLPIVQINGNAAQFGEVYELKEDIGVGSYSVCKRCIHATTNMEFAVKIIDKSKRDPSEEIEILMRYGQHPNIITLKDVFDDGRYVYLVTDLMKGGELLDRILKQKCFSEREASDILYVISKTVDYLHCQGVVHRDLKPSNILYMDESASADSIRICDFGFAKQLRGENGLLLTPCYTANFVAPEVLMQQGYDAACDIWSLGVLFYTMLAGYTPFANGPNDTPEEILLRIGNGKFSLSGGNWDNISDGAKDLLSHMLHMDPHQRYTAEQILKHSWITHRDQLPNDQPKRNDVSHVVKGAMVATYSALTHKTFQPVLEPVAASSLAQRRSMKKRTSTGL
Sequence of OXSR1 (human) (O95747 whole entry, looked up): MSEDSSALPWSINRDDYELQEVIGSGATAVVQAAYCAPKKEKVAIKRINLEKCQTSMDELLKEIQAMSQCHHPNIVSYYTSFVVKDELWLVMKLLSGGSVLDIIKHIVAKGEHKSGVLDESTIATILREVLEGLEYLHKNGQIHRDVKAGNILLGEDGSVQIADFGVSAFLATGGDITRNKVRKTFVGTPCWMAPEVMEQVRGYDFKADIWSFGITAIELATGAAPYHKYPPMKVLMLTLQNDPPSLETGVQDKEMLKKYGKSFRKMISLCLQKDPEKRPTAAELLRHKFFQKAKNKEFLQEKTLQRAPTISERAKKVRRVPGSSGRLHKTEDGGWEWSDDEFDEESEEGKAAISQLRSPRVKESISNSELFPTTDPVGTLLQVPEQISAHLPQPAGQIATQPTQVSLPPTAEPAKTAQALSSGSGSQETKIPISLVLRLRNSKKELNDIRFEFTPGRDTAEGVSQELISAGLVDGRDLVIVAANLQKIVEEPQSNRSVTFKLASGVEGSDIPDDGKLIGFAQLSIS
Sequence of BMX (human) (P51813 whole entry, looked up): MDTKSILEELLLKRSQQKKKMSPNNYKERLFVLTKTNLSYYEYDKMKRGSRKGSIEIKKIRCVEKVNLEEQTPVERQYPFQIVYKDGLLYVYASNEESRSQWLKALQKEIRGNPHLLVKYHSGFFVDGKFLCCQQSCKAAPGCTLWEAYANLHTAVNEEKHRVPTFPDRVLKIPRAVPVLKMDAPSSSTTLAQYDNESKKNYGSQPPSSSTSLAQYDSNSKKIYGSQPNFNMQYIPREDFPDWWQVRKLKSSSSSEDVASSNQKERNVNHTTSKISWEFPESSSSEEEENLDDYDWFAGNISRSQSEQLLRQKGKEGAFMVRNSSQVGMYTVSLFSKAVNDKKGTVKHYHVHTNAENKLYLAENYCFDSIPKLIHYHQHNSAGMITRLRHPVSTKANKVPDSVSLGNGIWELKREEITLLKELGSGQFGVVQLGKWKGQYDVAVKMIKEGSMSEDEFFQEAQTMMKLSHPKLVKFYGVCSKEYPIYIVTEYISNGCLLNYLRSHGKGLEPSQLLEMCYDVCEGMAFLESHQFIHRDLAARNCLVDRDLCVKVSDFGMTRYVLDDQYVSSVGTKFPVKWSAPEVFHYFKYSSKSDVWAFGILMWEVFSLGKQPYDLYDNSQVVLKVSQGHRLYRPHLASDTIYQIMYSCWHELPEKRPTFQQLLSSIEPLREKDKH
Sequence of EPHA3 (human) (P29320 whole entry, looked up): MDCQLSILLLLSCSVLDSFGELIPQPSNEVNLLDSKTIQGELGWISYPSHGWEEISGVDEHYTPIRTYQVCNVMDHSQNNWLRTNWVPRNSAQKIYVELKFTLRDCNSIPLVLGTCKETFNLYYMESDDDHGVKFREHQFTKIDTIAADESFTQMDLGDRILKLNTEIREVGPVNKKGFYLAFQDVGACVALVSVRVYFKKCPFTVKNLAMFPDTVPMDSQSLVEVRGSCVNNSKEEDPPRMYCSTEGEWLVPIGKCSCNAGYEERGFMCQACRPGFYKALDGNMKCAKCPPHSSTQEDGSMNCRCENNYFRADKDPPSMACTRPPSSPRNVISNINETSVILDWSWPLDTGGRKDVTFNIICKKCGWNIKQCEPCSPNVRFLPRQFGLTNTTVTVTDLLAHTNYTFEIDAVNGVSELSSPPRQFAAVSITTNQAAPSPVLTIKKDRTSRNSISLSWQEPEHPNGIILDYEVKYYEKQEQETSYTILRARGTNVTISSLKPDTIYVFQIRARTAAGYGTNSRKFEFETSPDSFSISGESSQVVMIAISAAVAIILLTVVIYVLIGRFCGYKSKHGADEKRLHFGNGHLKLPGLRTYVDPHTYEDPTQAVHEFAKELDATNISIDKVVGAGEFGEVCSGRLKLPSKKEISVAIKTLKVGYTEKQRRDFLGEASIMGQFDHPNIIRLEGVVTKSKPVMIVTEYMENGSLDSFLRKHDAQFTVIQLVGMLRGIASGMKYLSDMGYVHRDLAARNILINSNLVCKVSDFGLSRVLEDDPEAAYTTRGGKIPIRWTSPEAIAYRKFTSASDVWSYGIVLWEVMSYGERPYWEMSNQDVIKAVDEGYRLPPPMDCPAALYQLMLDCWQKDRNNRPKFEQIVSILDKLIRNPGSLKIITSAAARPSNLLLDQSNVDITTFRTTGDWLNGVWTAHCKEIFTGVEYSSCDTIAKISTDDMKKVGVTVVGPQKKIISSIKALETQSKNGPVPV
Sequence of CDK4 CCND1 (human) (P11802 whole entry, looked up): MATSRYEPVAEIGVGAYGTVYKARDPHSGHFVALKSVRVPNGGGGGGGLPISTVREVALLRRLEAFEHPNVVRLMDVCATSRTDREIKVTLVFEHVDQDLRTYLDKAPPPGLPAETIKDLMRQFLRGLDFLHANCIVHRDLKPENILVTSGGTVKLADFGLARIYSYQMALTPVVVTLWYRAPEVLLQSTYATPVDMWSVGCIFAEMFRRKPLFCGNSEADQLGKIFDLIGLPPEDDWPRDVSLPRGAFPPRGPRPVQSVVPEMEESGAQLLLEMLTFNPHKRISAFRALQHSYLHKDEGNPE
Sequence of CDK4 CCND1 (human) (P24385 whole entry, looked up): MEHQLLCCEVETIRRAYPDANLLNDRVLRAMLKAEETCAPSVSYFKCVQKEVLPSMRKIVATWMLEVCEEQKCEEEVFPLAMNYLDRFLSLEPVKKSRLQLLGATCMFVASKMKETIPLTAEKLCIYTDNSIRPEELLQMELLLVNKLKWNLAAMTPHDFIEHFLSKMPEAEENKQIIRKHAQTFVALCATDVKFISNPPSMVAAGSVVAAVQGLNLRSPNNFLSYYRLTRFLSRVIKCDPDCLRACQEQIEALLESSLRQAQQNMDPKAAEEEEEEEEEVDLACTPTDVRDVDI
Sequence of CDK4 CCND3 (human) (P11802 whole entry, looked up): as the sequence (P11802 whole entry, looked up) above
Sequence of CDK4 CCND3 (human) (P30281 whole entry, looked up): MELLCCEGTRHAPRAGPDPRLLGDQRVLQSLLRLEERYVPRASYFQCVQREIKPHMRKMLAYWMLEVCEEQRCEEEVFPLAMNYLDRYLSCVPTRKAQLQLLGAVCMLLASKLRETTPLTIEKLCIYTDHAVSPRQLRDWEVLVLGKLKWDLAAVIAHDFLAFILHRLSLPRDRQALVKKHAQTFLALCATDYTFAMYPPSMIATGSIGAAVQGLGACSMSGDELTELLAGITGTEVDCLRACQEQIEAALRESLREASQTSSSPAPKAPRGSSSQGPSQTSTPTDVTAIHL
Sequence of LATS2 (human) (Q9NRM7 whole entry, looked up): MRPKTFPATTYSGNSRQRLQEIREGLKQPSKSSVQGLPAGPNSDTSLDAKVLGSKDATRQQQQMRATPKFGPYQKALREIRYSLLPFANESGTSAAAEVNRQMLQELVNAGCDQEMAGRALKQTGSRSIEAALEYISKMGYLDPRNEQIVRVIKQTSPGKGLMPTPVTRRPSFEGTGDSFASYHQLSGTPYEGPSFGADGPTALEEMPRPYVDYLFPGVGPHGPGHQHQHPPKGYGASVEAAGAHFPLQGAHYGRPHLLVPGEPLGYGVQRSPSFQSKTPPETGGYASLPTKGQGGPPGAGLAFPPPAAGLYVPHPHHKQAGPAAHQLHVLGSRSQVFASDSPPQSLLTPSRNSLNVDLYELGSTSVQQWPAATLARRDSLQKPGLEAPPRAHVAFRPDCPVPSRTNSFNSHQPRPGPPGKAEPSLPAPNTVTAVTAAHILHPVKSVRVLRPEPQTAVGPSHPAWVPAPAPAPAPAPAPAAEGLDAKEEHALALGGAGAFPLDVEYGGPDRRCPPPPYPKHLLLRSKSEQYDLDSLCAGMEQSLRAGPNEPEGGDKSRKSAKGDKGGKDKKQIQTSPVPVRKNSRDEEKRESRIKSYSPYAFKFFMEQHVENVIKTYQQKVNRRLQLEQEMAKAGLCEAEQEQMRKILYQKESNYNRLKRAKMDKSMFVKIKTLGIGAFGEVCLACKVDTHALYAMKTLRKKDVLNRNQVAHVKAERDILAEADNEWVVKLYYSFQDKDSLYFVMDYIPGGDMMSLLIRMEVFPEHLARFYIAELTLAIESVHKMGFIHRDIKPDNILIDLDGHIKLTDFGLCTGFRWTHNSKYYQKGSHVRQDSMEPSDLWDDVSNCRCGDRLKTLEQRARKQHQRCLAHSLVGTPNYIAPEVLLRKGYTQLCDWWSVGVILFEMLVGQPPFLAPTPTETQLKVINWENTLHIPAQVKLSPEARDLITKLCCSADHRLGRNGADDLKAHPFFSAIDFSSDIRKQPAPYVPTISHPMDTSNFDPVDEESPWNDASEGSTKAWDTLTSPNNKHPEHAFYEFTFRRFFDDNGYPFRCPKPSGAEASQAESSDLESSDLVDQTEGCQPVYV

`CN(C)C/C=C/C(=O)Nc1cccc(C(=O)Nc2ccc(Nc3nccc(-c4cccnc4)n3)cc2)c1` was tested, and the kinase still bound, per cent of control (ACVR2A (human)) was 43%, the kinase still bound, per cent of control (ADCK4 (human)) was 69% and the kinase still bound, per cent of control (BMX (human)) was 70%. It also gave a kinase still bound, per cent of control (CDK2 (human)) of 100%, a kinase still bound, per cent of control (CDK4 CCND1 (human)) of 61% and a kinase still bound, per cent of control (CDK4 CCND3 (human)) of 61%. For the same compound, the kinase still bound, per cent of control (CDKL1 (human)) was 54%, the pKd (CDKL5 (human)) was 7.47 and the kinase still bound, per cent of control (CDKL5 (human)) was 1.7%. The kinase still bound, per cent of control (CPK1 (P.falciparum)) was 77%, the kinase still bound, per cent of control (CaMK1 (human)) was 100% and the kinase still bound, per cent of control (DDR1 (human)) was 100%. It also gave a kinase still bound, per cent of control [1] of 78%, a kinase still bound, per cent of control (EPHA1 (human)) of 95% and a kinase still bound, per cent of control (EPHA3 (human)) of 80%. The kinase still bound, per cent of control (EPHA4 (human)) was 94%, the kinase still bound, per cent of control (EPHB3 (human)) was 96% and the kinase still bound, per cent of control (EPHB4 (human)) was 100%. For the same compound, the kinase still bound, per cent of control [2] was 13%, the kinase still bound, per cent of control (FLT4 (human)) was 95% and the kinase still bound, per cent of control (IRAK3 (human)) was 20%. The kinase still bound, per cent of control (LATS2 (human)) was 73%, the kinase still bound, per cent of control (LTK (human)) was 100% and the kinase still bound, per cent of control (MAP2K3 (human)) was 41%. The kinase still bound, per cent of control (MAP3K1 (human)) was 85%, the kinase still bound, per cent of control (MAP3K4 (human)) was 88% and the kinase still bound, per cent of control (MAPK15 (human)) was 7.1%. It also gave a kinase still bound, per cent of control (MKNK2 (human)) of 13%, a kinase still bound, per cent of control (OXSR1 (human)) of 96% and a kinase still bound, per cent of control (PIK3C2B (human)) of 100%. For the same compound, the kinase still bound, per cent of control [3] was 100%, the kinase still bound, per cent of control (PIK3CG (human)) was 21% and the kinase still bound, per cent of control (PRKAA1 (human)) was 92%. For the same compound, the kinase still bound, per cent of control (PRKACB (human)) was 100%, the kinase still bound, per cent of control (PTK6 (human)) was 77% and the kinase still bound, per cent of control (RPS6KA4 KD2 (human)) was 65%. It also gave a kinase still bound, per cent of control (RPS6KA5 KD1 (human)) of 100%, a kinase still bound, per cent of control (RPS6KA5 KD2 (human)) of 100% and a kinase still bound, per cent of control (RPS6KA6 KD2 (human)) of 100%. It also gave a kinase still bound, per cent of control (SGK110 (human)) of 100%, a kinase still bound, per cent of control (TNK1 (human)) of 67% and a pKd (YSK4 (human)) of 8.32. The kinase still bound, per cent of control (YSK4 (human)) was 0.1% and the kinase still bound, per cent of control (ZAP70 (human)) was 100%.
For `CN(C)C/C=C/C(=O)Nc1cccc(C(=O)Nc2ccc(Nc3nccc(-c4c(-c5ccccc5)nn5ccccc45)n3)cc2)c1`, the kinase still bound, per cent of control (ACVR2A (human)) was 5.1%, the kinase still bound, per cent of control (ADCK4 (human)) was 0% and the kinase still bound, per cent of control (BMX (human)) was 76%. It also gave a kinase still bound, per cent of control (CDK2 (human)) of 100%, a kinase still bound, per cent of control (CDK4 CCND1 (human)) of 79% and a kinase still bound, per cent of control (CDK4 CCND3 (human)) of 81%. It also gave a kinase still bound, per cent of control (CDKL1 (human)) of 100%, a kinase still bound, per cent of control (CDKL5 (human)) of 100% and a kinase still bound, per cent of control (CPK1 (P.falciparum)) of 0.6%. It also gave a kinase still bound, per cent of control (CaMK1 (human)) of 100%, a kinase still bound, per cent of control (DDR1 (human)) of 0% and a kinase still bound, per cent of control [1] of 1.8%. It also gave a kinase still bound, per cent of control (EPHA1 (human)) of 38%, a kinase still bound, per cent of control (EPHA3 (human)) of 65% and a kinase still bound, per cent of control (EPHA4 (human)) of 89%. It also gave a kinase still bound, per cent of control (EPHB3 (human)) of 86%, a kinase still bound, per cent of control (EPHB4 (human)) of 43% and a kinase still bound, per cent of control [2] of 54%. For the same compound, the kinase still bound, per cent of control (FLT4 (human)) was 7.8%, the kinase still bound, per cent of control (IRAK3 (human)) was 64% and the kinase still bound, per cent of control (LATS2 (human)) was 78%. For the same compound, the kinase still bound, per cent of control (LTK (human)) was 83%, the kinase still bound, per cent of control (MAP2K3 (human)) was 58% and the kinase still bound, per cent of control (MAP3K1 (human)) was 96%. The kinase still bound, per cent of control (MAP3K4 (human)) was 80%, the kinase still bound, per cent of control (MAPK15 (human)) was 93% and the kinase still bound, per cent of control (MKNK2 (human)) was 100%. It also gave a kinase still bound, per cent of control (OXSR1 (human)) of 100%, a kinase still bound, per cent of control (PIK3C2B (human)) of 100% and a kinase still bound, per cent of control [3] of 100%. It also gave a kinase still bound, per cent of control (PIK3CG (human)) of 84%, a kinase still bound, per cent of control (PRKAA1 (human)) of 100% and a kinase still bound, per cent of control (PRKACB (human)) of 83%. For the same compound, the kinase still bound, per cent of control (PTK6 (human)) was 82%, the kinase still bound, per cent of control (RPS6KA4 KD2 (human)) was 91% and the kinase still bound, per cent of control (RPS6KA5 KD1 (human)) was 100%. The kinase still bound, per cent of control (RPS6KA5 KD2 (human)) was 97%, the kinase still bound, per cent of control (RPS6KA6 KD2 (human)) was 13% and the kinase still bound, per cent of control (SGK110 (human)) was 100%. For the same compound, the kinase still bound, per cent of control (TNK1 (human)) was 100%, the kinase still bound, per cent of control (YSK4 (human)) was 62% and the kinase still bound, per cent of control (ZAP70 (human)) was 96%.
With `CN(C)C/C=C/C(=O)Nc1cccc(C(=O)Nc2ccc(Nc3nccc(/C(C#N)=C4\Nc5ccccc5S4)n3)cc2)c1` the kinase still bound, per cent of control (ACVR2A (human)) was 79%, the kinase still bound, per cent of control (ADCK4 (human)) was 48% and the kinase still bound, per cent of control (BMX (human)) was 88%. For the same compound, the kinase still bound, per cent of control (CDK2 (human)) was 100%, the kinase still bound, per cent of control (CDK4 CCND1 (human)) was 100% and the kinase still bound, per cent of control (CDK4 CCND3 (human)) was 100%. The kinase still bound, per cent of control (CDKL1 (human)) was 66%, the kinase still bound, per cent of control (CDKL5 (human)) was 21% and the kinase still bound, per cent of control (CPK1 (P.falciparum)) was 96%. The kinase still bound, per cent of control (CaMK1 (human)) was 100%, the kinase still bound, per cent of control (DDR1 (human)) was 59% and the kinase still bound, per cent of control [1] was 100%. For the same compound, the kinase still bound, per cent of control (EPHA1 (human)) was 89%, the kinase still bound, per cent of control (EPHA3 (human)) was 100% and the kinase still bound, per cent of control (EPHA4 (human)) was 100%. It also gave a kinase still bound, per cent of control (EPHB3 (human)) of 95%, a kinase still bound, per cent of control (EPHB4 (human)) of 100% and a kinase still bound, per cent of control [2] of 73%. For the same compound, the kinase still bound, per cent of control (FLT4 (human)) was 78%, the kinase still bound, per cent of control (IRAK3 (human)) was 51% and the kinase still bound, per cent of control (LATS2 (human)) was 100%. For the same compound, the kinase still bound, per cent of control (LTK (human)) was 100%, the kinase still bound, per cent of control (MAP2K3 (human)) was 88% and the kinase still bound, per cent of control (MAP3K1 (human)) was 100%. The kinase still bound, per cent of control (MAP3K4 (human)) was 100%, the kinase still bound, per cent of control (MAPK15 (human)) was 76% and the kinase still bound, per cent of control (MKNK2 (human)) was 68%. The kinase still bound, per cent of control (OXSR1 (human)) was 100%, the kinase still bound, per cent of control (PIK3C2B (human)) was 96% and the kinase still bound, per cent of control [3] was 100%. It also gave a kinase still bound, per cent of control (PIK3CG (human)) of 51%, a kinase still bound, per cent of control (PRKAA1 (human)) of 100% and a kinase still bound, per cent of control (PRKACB (human)) of 100%. For the same compound, the kinase still bound, per cent of control (PTK6 (human)) was 100%, the kinase still bound, per cent of control (RPS6KA4 KD2 (human)) was 100% and the kinase still bound, per cent of control (RPS6KA5 KD1 (human)) was 100%. The kinase still bound, per cent of control (RPS6KA5 KD2 (human)) was 100%, the kinase still bound, per cent of control (RPS6KA6 KD2 (human)) was 100% and the kinase still bound, per cent of control (SGK110 (human)) was 100%. It also gave a kinase still bound, per cent of control (TNK1 (human)) of 15%, a kinase still bound, per cent of control (YSK4 (human)) of 59% and a kinase still bound, per cent of control (ZAP70 (human)) of 81%.
